US20240125703A1, “SYSTEMS AND METHODS FOR Q[…] OBSERVED VISUALIZATION OF FL[…] AGENTS” (Stryker Corporation, priority 2022, published 2024)

What was measured:
[1] = test system: ureters; test: Qualitative in vivo ureter visualization in Yorkshire pig (Stryker 1588 AIM System and SPY-PHI open field system); details: 0.01 mg/kg, iv; either imaging system; prior to any dissection
Description: In a second qualitative in vivo study, pudexacianinium (0.01 mg/kg, iv) was injected into a healthy female Yorkshire pig and the ureters were visualized using examples of an image guided surgery system 10 of FIG. 1A—a Stryker Corporation 1588 AIM System and a Stryker Corporation SPY-PHI open field system—prior to any dissection.

[2] = test system: ureters; test: Contrast quantification / contrast enhancement factor (CEF) from surgical video frames of ureters, laparoscopic/minimally invasive colorectal surgery (Phase 2); format: in vivo, human; details: for contrast quantification: single subject, 1.0 mg dose
Description: The following example illustrates using contrast quantification, according to method 100, to assess the visual effectiveness of different fluorescence imaging agent doses. In this example, subjects undergoing laparoscopic/minimally invasive colorectal surgery received doses of either 0.3 mg, 1.0 mg, or 3 mg of pudexacianinium chloride (Chemical formula (A))—an indocyanine-green derivative fluorescence imaging agent with hydrophilic properties and rapid urinary clearance without metabolism after intravenous administration—at the start of the minimally invasive surgery procedure and the normal colectomy was completed.
At pre-specified time intervals during the surgery, the surgeon utilized a fluorescence visualization system to examine the retroperitoneum and attempted to visualize the ureters. The surgical videos generated by the fluorescence visualization system were recorded. Frames from these surgical videos were analyzed according to method 100 to quantify the color contrast observable by the surgeon when a bolus of the fluorescence imaging agent passed through the ureters.
Baseline and fluorescence-containing images for a subject who received a 1.0 mg dose of the fluorescence imaging agent are illustrated in FIG. 5—baseline image 400 and fluorescence-containing image 402. The color images 400, 402 are full color surgical video frames generated by a fluorescence visualization system that combines full color and fluorescence frames into a combined frame in which the fluorescence signal is captured in the green component of the frame. The color images 400, 402 capture a portion of a ureter, which is visible in bright green in fluorescence-containing image 402. The fluorescence-containing image 402 was captured while a bolus of the fluorescence imaging agent was present in the portion of the ureter within the field of view, and the baseline image 400 was captured shortly after the bolus of the fluorescence imaging agent had at least partially passed through the portion of the ureter.
Each of the color images 400, 402 was imported in a video analysis software and exported as separate greyscale bitmaps of the red (R), green (G) and blue (B) color components corresponding to each full color image frame.
Next, a line was plotted that transects the ureter at the same location on both the fluorescence-containing and baseline bitmaps for each R, G, and B color component. Graphs were subsequently created that plot the bitmap signal intensity values at each point along the line segment against position on the line segment for each line segment in each color component. Red, green and blue graphs were constructed for each pair of fluorescence-containing — baseline color components. Exemplary graphs are illustrated in FIGS. 7A-C, which include the graphs for each color component for the fluorescence-containing image (“dye”) and baseline image (“no-dye”) on the same plot. FIG. 7A is the graph for the red color component for the fluorescence-containing and baseline images, FIG. 7B is the graph for the blue color component for the fluorescence-containing and baseline images, and FIG. 7C is the graph for the green color component for the fluorescence-containing and baseline images,
At least the graph for the green component was then analyzed to identify, according to steps 104 and 106 of method 100, regions along the line segment (shown in FIG. 7D as position 0-300) that—by comparison with the bitmap—lie clearly inside the anatomical boundaries of the ureter (a region encompassed by the anatomy of interest according to step 104) or clearly outside of those same anatomical boundaries (a region not encompassed by the anatomy of interest according to step 106). Note that the “inside” and “outside” regions are different for the fluorescence imaging agent (“dye”) and baseline (“no Dye”) images due to the differences in the field of view of the color images. […]

[3] = test system: pig ureters ex vivo; test: NIR-F of pudexacianinium instilled in pig ureters ex vivo (PDE-NEO NIR-F imager); details: for NIR-F Intensity: mean, three ureters
Description: In the second study, pudexacianinium (0.01-10 μg/mL) was instilled in pig ureters ex vivo and the NIR-F determined using a PDE-NEO NIR-F imager. Here too, the NIR-F intensity increased with increasing concentrations of pudexacianinium with the fluorescence intensity tending to plateau at concentrations equal to or greater than 1 μg/mL, as shown in the table below. Thus, the fluorescence activity of pudexacianinium can be visualized in the lumen of ureters.

[4] = test system: ureters; test: In vivo ureter visualization in Gottingen minipigs, NIR-F camera, visual assessment by three clinicians
Description: Next, the ability to visualize ureters in vivo was assessed in Gottingen minipigs. The animals were anesthetized, laparotomized and then intravenously injected with pudexacianinium (0.001 or 0.01 mg/kg). Videos of the abdominal cavity were taken using a NIR-F camera and assessed visually by three independent clinicians for up to three hours.

[5] = Urine concentration of pudexacianinium in minipigs; format: in vivo, Gottingen minipigs; details: 0.01 mg/kg; over 3 hour observation period
Description: A direct translation of the nonclinical pharmacology visualization results in the intended clinical use and dose in humans is considered feasible given the simple elimination route of the dye in both cases (eliminated entirely through renal system) and given the physiologic comparability between porcine and human kidneys. The 0.01 mg/kg dose used in pigs translates to an approximate human equivalent dose of 0.7-0.8 mg/participant. This is consistent with the dose recommendation for the clinical Phase 3 study (1 mg/participant).

[6] = test system: ureter(s); test: Phase 2 dose ranging study, Visualization Review Committee (VRC) assessment of ureter visualization; format: in vivo, human
From the text: The results from the Phase 1 study provided the foundation for Phase 2 study, a randomized open-label, dose ranging study for ureter visualization, using ASP5354 in participants undergoing laparoscopic/minimally invasive colorectal surgery.
The results of the Phase 2 study support the use of pudexacianinium as an intraoperative ureter visualization (surgeon's ability to identify/locate the ureter from the surrounding structures) during the entire abdominopelvic surgical procedure. […] As a result, the VRC recommended moving forward with the 1 mg per participant dose for Phase 3.

[7] = In vitro NIR-F of ASP5354 in 96 well plates, microplate reader (excitation 780 nm, emission 820 nm); format: physicochemical; details: 0.01-1000 μg/mL in 96 well plates
Description: The following example illustrates using a measure of visual enhancement of the anatomy of interest in a color image (a contrast enhancement factor), generated according to method 100, as an alternative to biological samples for bioequivalence and bioavailability assessments of a fluorescence imaging agent, in particular the fluorescence dye ASP5354 (pudexacianinium). In this example, two in vitro studies were performed to determine the effect of ASP5354 concentration on near-infrared fluorescence (NIR-F). In the first study, ASP5354 (0.01-1000 μg/mL) was added to 96 well plates, the plates placed in a microplate reader, and subjected to a near-infrared excitation frequency of 780 nm. The emitted NIR-F determined at a wavelength of 820 nm. The fluorescence intensity increased as the concentration of pudexacianinium increased and tended to plateau at concentrations greater than or equal to 100 μg/mL.

[8] = Dye in ureter, 1 mg (N = 6) including expansion
[9] = No Dye in ureter, 0.3 mg (N = 3)
[10] = No Dye in ureter, 1 mg (N = 6) including expansion

Substance: pudexacianinium chloride
- visibility of ureters [1]: readily visible
- Contrast quantification, Mean ([2]; 0.3 mg, N 3, Baseline image): 1.10
- Contrast quantification, Mean ([2]; 0.3 mg, N 3, Fluorescence-containing image): 1.84
- proportion of data with CEF above 1.5 ([2]; 1 mg and 3 mg, dye): ≥ 90%
- Contrast quantification, Mean ([2]; 1.0 mg, N 6, Fluorescence-containing image (first column of the dose)): 2.55
- Contrast quantification, Mean ([2]; 1.0 mg, N 6, head printed Fluorescence-containing image (second column of the dose)): 1.06
- Contrast quantification, Mean ([2]; 3.0 mg, N 3, Fluorescence-containing image (first column of the dose)): 3.23
- Contrast quantification, Mean ([2]; 3.0 mg, N 3, head printed Fluorescence-containing image (second column of the dose)): 1.09
- CEF, Mean (SD) ([2]; Dye in ureter, 0.3 mg (N = 3)): 1.84 (0.46)
- CEF, Median ([2]; Dye in ureter, 0.3 mg (N = 3)): 1.77
- CEF, Min-Max ([2]; Dye in ureter, 0.3 mg (N = 3)): 1.3-3.0
- CEF, Mean (SD) ([2]; Dye in ureter, 1 mg (N = 3)): 2.97 (1.03)
- CEF, Median ([2]; Dye in ureter, 1 mg (N = 3)): 2.96
- CEF, Min-Max ([2]; Dye in ureter, 1 mg (N = 3)): 1.6-5.6
- CEF, Mean (SD) [2, 8]: 2.55 (0.95)
- CEF, Median [2, 8]: 2.28
- CEF, Min-Max [2, 8]: 1.3-5.6
- CEF, Mean (SD) ([2]; Dye in ureter, 3 mg (N = 3)): 3.23 (1.70)
- CEF, Median ([2]; Dye in ureter, 3 mg (N = 3)): 2.64
- CEF, Min-Max ([2]; Dye in ureter, 3 mg (N = 3)): 1.2-7.7
- CEF, Mean (SD) [2, 9]: 1.10 (0.13)
- CEF, Median [2, 9]: 1.05
- CEF, Min-Max [2, 9]: 0.9-1.3
- CEF, Mean (SD) ([2]; No Dye in ureter, 1 mg (N = 3)): 1.06 (0.12)
- CEF, Median ([2]; No Dye in ureter, 1 mg (N = 3)): 1.07
- CEF, Min-Max ([2]; No Dye in ureter, 1 mg (N = 3)): 0.8-1.3
- CEF, Mean (SD) [2, 10]: 1.06 (0.12)
- CEF, Median [2, 10]: 1.06
- CEF, Min-Max [2, 10]: 0.8-1.4
- CEF, Mean (SD) ([2]; No Dye in ureter, 3 mg (N = 3)): 1.09 (0.10)
- CEF, Median ([2]; No Dye in ureter, 3 mg (N = 3)): 1.10
- CEF, Min-Max ([2]; No Dye in ureter, 3 mg (N = 3)): 0.7-1.2
- contrast quantification ([2]; baseline image): 1.3
- contrast quantification value for the baseline images ([2]; baseline images, absence of bolus): around 1
- contrast quantification ([2]; fluorescence imaging agent image): 2.0
- CEF value, all data points ([2]; no dye conditions): below 1.5
- reference CEF ([2]; no dye present in the ureter): ~1
- NIR-F Intensity ([3]; 0.01 ug/mL): 0.000 arbitrary units
- NIR-F Intensity ([3]; 0.03 ug/mL): 4.672 arbitrary units
- NIR-F Intensity ([3]; 0.1 ug/mL): 47.945 arbitrary units
- NIR-F Intensity ([3]; 0.3 ug/mL): 125.078 arbitrary units
- NIR-F Intensity ([3]; 1.0 ug/mL): 229.504 arbitrary units
- NIR-F Intensity ([3]; 3.0 ug/mL): 254.867 arbitrary units
- NIR-F Intensity ([3]; 10 ug/mL): 254.808 arbitrary units
- concentration at which NIR-F intensity tended to plateau ([3]; 0.01-10 μg/mL in pig ureters ex vivo): ≥ 1 µg/mL
- animals demonstrating ureteral visualization for three hours ([4]; 0.001 mg/kg intravenously): one out of three
- animals showing ureteral visualization for the full three hour observation period ([4]; 0.01 mg/kg intravenously): three out of three
- urine concentration of pudexacianinium [5]: 1 to 6 µg/mL
- VRC: adequacy for ureter(s) visualization ([6]; 0.3 mg per participant): inadequate for ureter(s) visualization
- VRC: ureter(s) visualization ([6]; 1 mg per participant, during procedure, at beginning and end): provided ureter(s) visualization during the surgical procedure
- VRC: difference in ureter(s) visualization between doses ([6]; 1 mg vs 3 mg dose): no notable differences
- VRC conclusion on ureter visualization under NIR-F conditions ([6]; all doses (0.3, 1, 3 mg per participant)): enhanced visualization of ureter(s)
- VRC: visualization throughout the duration of the surgical procedure ([6]; single dose of 1 mg and 3 mg per participant): consistently occurred
- concentration at which fluorescence intensity tended to plateau [7]: greater than or equal to 100 μg/mL
